{"source": "patent US20250144094A1", "about": "(Erasca, Inc., priority 2021, published 2025)"}
{"biological_target": "Recombinant human ULK1 (1-649) (Homo sapiens (Human), UniProt O75385)", "sequence (O75385 1-649)": "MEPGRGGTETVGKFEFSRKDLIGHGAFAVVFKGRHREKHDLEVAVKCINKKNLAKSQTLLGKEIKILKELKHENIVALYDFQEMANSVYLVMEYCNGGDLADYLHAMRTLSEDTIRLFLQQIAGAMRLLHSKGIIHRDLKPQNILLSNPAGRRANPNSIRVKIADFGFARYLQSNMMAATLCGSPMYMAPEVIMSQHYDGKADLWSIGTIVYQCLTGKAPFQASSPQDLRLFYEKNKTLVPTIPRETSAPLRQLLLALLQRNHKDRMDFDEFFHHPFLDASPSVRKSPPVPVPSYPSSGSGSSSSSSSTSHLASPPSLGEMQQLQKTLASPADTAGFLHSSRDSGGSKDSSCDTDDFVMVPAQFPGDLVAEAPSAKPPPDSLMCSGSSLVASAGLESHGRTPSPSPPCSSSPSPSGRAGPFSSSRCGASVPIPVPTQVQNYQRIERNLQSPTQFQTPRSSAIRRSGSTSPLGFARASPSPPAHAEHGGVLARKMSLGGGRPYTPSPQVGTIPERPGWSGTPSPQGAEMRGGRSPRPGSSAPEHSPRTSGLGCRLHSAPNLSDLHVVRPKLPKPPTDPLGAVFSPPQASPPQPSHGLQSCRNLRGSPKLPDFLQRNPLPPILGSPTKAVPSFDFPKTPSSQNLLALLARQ", "assay": "ULK1 ADP Glo kinase activity assay, new method (ULKtide peptide substrate)", "details": "25° C., 40 minutes, read-out: ULK1 biochemical IC50", "description": "Recombinant human ULK1 (1-649) protein expressed in Sf9 insect cells was obtained from SignalChem (Vancouver, BC), catalog #U01-11G. Active kinase was purified via N-terminal GST tag to >85% purity.\nADP GLO Kinase Assay Reagents were obtained from Promega Corp (Madison, WI), catalog #V9104.\nSynthetic peptide substrate (ULKtide) with the amino acid sequence YANWLAASIYLDGKKK was obtained from ThermoFisher Scientific USA.\nULK1 inhibitor potency was determined using the luminescent ADP Glo Kinase Assay (Promega), a universal ADP detection system that measures kinase activity by quantifying the amount of ADP produced during a kinase reaction. ULK1 kinase reactions are performed in a standard 96-well microplate (20 μL reaction volume) at 25° C. for 40 minutes in the presence or absence of the test compound (12-point dilution series starting at 10 μM). Addition of peptide substrate and ATP initiates the kinase reaction.\nThe standard ADP Glo assay is performed in two steps. In step one, following the kinase reaction, an equal volume of ADP-Glo™ Reagent (20 μL) is added to terminate the kinase reaction and deplete the remaining ATP. In the second step, the Kinase Detection Reagent (10 μL) is added to simultaneously convert ADP to ATP and allow the newly synthesized ATP to be measured using a luciferase/luciferin reaction. Step two of the ADP Glo assay is performed in a white 384-well plate (20 μL final volume). Thirty minutes after the addition of the Detection reagent, light generated from the luciferase reaction is measured (1 second exposure) using a microplate compatible luminometer (CLARIOstar, BMG Labtech).\nInhibition of ULK1 kinase activity is determined for each test compound by comparison to DMSO only control wells. Inhibitor IC50 was calculated by plotting the change in luminescence after 30 minutes (response) versus inhibitor concentration (in log molar) then applying the four-parameter variable slope curve fit (GraphPad Prism). Inhibition of ULK1 in biochemical assay is found in Table 4.", "units": {"IC50": "nM"}}
{"smiles": "CN1CCS(=O)(=O)c2cc(-c3nc(Nc4cc5c(cc4Cl)CCNC5)ncc3C(F)(F)F)sc2C1=O", "note": "[Example 159, 7-(2-((6-chloro-1,2,3,4-tetrahydroisoquinolin-7-yl)amino)-5-(trifluoromethyl)pyrimidin-4-yl)-4-methyl-3,4-dihydrothieno[2,3-f][1,4]thiazepin-5(2H)-one 1,1-dioxide]", "IC50": "≤ 5"}
{"smiles": "CCc1cc2c(cc1Nc1ncc(C(F)(F)F)c(-c3cc4c(s3)C(=O)N(C)CCS4(=O)=O)n1)CNC2", "note": "[Example 160, 7-(2-((6-ethylisoindolin-5-yl)amino)-5-(trifluoromethyl)pyrimidin-4-yl)-4-methyl-3,4-dihydrothieno[2,3-f][1,4]thiazepin-5(2H)-one 1,1-dioxide]", "IC50": "≤ 5"}
{"smiles": "CSc1cc2c(cc1Nc1ncc(C(F)(F)F)c(-c3cc4c(s3)C(=O)N(C)CCS4(=O)=O)n1)CCNC2", "note": "[Example 161, 4-methyl-7-(2-((7-(methylthio)-1,2,3,4-tetrahydroisoquinolin-6-yl)amino)-5-(trifluoromethyl)pyrimidin-4-yl)-3,4-dihydrothieno[2,3-f][1,4]thiazepin-5(2H)-one 1,1-dioxide]", "IC50": "≤ 5"}
{"smiles": "CCN1CCc2cc(Nc3ncc(C(F)(F)F)c(-c4cc5c(s4)C(=O)N(C)CCS5(=O)=O)n3)c(Cl)cc2C1", "note": "[Example 162, 7-(2-((7-chloro-2-ethyl-1,2,3,4-tetrahydroisoquinolin-6-yl)amino)-5-(trifluoromethyl)pyrimidin-4-yl)-4-methyl-3,4-dihydrothieno[2,3-f][1,4]thiazepin-5(2H)-one 1,1-dioxide]", "IC50": "≤ 5"}
{"smiles": "O=S1(=O)CCOCc2sc(-c3nc(Nc4cc5c(cc4Cl)CNCC5)ncc3C(F)(F)F)cc21", "note": "[Example 163, 7-(2-((7-chloro-1,2,3,4-tetrahydroisoquinolin-6-yl)amino)-5-(trifluoromethyl)pyrimidin-4-yl)-2,3-dihydro-5H-thieno[3,2-e][1,4]oxathiepine 1,1-dioxide]", "IC50": "≤ 5"}
{"smiles": "CN1CCS(=O)(=O)c2cc(-c3nc(Nc4cc5c(cc4Cl)CNC5)ncc3C(F)(F)F)sc2C1=O", "note": "[Example 164, 7-(2-((6-chloroisoindolin-5-yl)amino)-5-(trifluoromethyl)pyrimidin-4-yl)-4-methyl-3,4-dihydrothieno[2,3-f][1,4]thiazepin-5(2H)-one 1,1-dioxide]", "IC50": "≤ 5"}
{"smiles": "Cc1nn(C2CCNCC2)cc1Nc1ncc(C(F)(F)F)c(-c2cc3c(s2)C(=O)NCCS3(=O)=O)n1", "note": "[Example 165, 7-(2-((3-methyl-1-(piperidin-4-yl)-1H-pyrazol-4-yl)amino)-5-(trifluoromethyl)pyrimidin-4-yl)-3,4-dihydrothieno[2,3-f][1,4]thiazepin-5(2H)-one 1,1-dioxide]", "IC50": "> 100"}
{"smiles": "Cc1nn(C2CCNCC2)cc1Nc1ncc(C(F)(F)F)c(-c2cc3c(s2)C(=O)N(C)CCS3(=O)=O)n1", "note": "[Example 166, 4-methyl-7-(2-((3-methyl-1-(piperidin-4-yl)-1H-pyrazol-4-yl)amino)-5-(trifluoromethyl)pyrimidin-4-yl)-3,4-dihydrothieno[2,3-f][1,4]thiazepin-5(2H)-one 1,1-dioxide]", "IC50": "> 100"}
{"smiles": "CN1CCc2cc(Nc3ncc(C(F)(F)F)c(-c4cc5c(s4)C(=O)N(C4CC4)CCS5(=O)=O)n3)c(Cl)cc2C1", "note": "[Example 167, 7-(2-((7-chloro-2-methyl-1,2,3,4-tetrahydroisoquinolin-6-yl)amino)-5-(trifluoromethyl)pyrimidin-4-yl)-4-cyclopropyl-3,4-dihydrothieno[2,3-f][1,4]thiazepin-5(2H)-one 1,1-dioxide]", "IC50": "≤ 5"}
{"smiles": "CN1CCc2cc(Nc3ncc(C(F)(F)F)c(-c4cc5c(s4)C(=O)N(C4CCC4)CCS5(=O)=O)n3)c(Cl)cc2C1", "note": "[Example 168, 7-(2-((7-chloro-2-methyl-1,2,3,4-tetrahydroisoquinolin-6-yl)amino)-5-(trifluoromethyl)pyrimidin-4-yl)-4-cyclobutyl-3,4-dihydrothieno[2,3-f][1,4]thiazepin-5(2H)-one 1,1-dioxide]", "IC50": "≤ 5"}
{"smiles": "CN1CCc2cc(Cl)c(Nc3ncc(C(F)(F)F)c(-c4cc5c(s4)C(=O)N(C)CCS5(=O)=O)n3)cc2C1", "note": "[Example 169]", "IC50": "≤ 5"}
{"smiles": "CN1CCS(=O)(=O)c2cc(-c3nc(Nc4ccc5c(c4C4CC4)CNC5)ncc3C(F)(F)F)sc2C1=O", "note": "[Example 170, 7-(2-((4-cyclopropylisoindolin-5-yl)amino)-5-(trifluoromethyl)pyrimidin-4-yl)-4-methyl-3,4-dihydrothieno[2,3-f][1,4]thiazepin-5(2H)-one 1,1-dioxide]", "IC50": "10 to 50"}
{"smiles": "CSc1cc2c(cc1Nc1ncc(C(F)(F)F)c(-c3cc4c(s3)C(=O)N(C)CCS4(=O)=O)n1)CCN(C)C2", "note": "[Example 171, 4-methyl-7-(2-((2-methyl-7-(methylthio)-1,2,3,4-tetrahydroisoquinolin-6-yl)amino)-5-(trifluoromethyl)pyrimidin-4-yl)-3,4-dihydrothieno[2,3-f][1,4]thiazepin-5(2H)-one 1,1-dioxide]", "IC50": "≤ 5"}
{"smiles": "CN1CCS(=O)(=O)c2cc(-c3nc(Nc4cc5c(cc4C4CC4)CNCC5)ncc3C(F)(F)F)sc2C1=O", "note": "[Example 173, 7-(2-((7-cyclopropyl-1,2,3,4-tetrahydroisoquinolin-6-yl)amino)-5-(trifluoromethyl)pyrimidin-4-yl)-4-methyl-3,4-dihydrothieno[2,3-f][1,4]thiazepin-5(2H)-one 1,1-dioxide]", "IC50": "≤ 5"}
{"smiles": "CCc1cc(N2CCNCC2)ccc1Nc1ncc(C(F)(F)F)c(-c2cc3c(s2)C(=O)N(C)CCS3(=O)=O)n1", "note": "[Example 174, 7-(2-((2-ethyl-4-(piperazin-1-yl)phenyl)amino)-5-(trifluoromethyl)pyrimidin-4-yl)-4-methyl-3,4-dihydrothieno[2,3-f][1,4]thiazepin-5(2H)-one 1,1-dioxide]", "IC50": "≤ 5"}
{"smiles": "CCc1cc2c(cc1Nc1ncc(C(F)(F)F)c(-c3cc4c(s3)C(=O)N(CC(F)(F)F)CCS4(=O)=O)n1)CCNC2", "note": "[Example 175, 7-(2-((7-ethyl-1,2,3,4-tetrahydroisoquinolin-6-yl)amino)-5-(trifluoromethyl)pyrimidin-4-yl)-4-(2,2,2-trifluoroethyl)-3,4-dihydrothieno[2,3-f][1,4]thiazepin-5(2H)-one 1,1-dioxide]", "IC50": "≤ 5"}
{"smiles": "Cc1c(Nc2ncc(C(F)(F)F)c(-c3cc4c(s3)C(=O)N(C)CCS4(=O)=O)n2)cnn1C1CCNCC1", "note": "[Example 176, 4-methyl-7-(2-((5-methyl-1-(piperidin-4-yl)-1H-pyrazol-4-yl)amino)-5-(trifluoromethyl)pyrimidin-4-yl)-3,4-dihydrothieno[2,3-f][1,4]thiazepin-5(2H)-one 1,1-dioxide]", "IC50": "> 100"}
{"smiles": "CN1CCS(=O)(=O)c2cc(-c3nc(Nc4cc5c(cc4C4CC4)CNC5)ncc3C(F)(F)F)sc2C1=O", "note": "[Example 177, 7-(2-((6-cyclopropylisoindolin-5-yl)amino)-5-(trifluoromethyl)pyrimidin-4-yl)-4-methyl-3,4-dihydrothieno[2,3-f][1,4]thiazepin-5(2H)-one 1,1-dioxide]", "IC50": "≤ 5"}
{"smiles": "Cc1c(Nc2ncc(C(F)(F)F)c(-c3cc4c(s3)C(=O)NCCS4(=O)=O)n2)cnn1C1CCNCC1", "note": "[Example 178, 7-(2-((5-methyl-1-(piperidin-4-yl)-1H-pyrazol-4-yl)amino)-5-(trifluoromethyl)pyrimidin-4-yl)-3,4-dihydrothieno[2,3-f][1,4]thiazepin-5(2H)-one 1,1-dioxide]", "IC50": "> 100"}
{"smiles": "O=C1NCCS(=O)(=O)c2cc(-c3nc(Nc4cc5c(cc4Cl)CNC5)ncc3C(F)(F)F)sc21", "note": "[Example 180, 7-(2-((6-chloroisoindolin-5-yl)amino)-5-(trifluoromethyl)pyrimidin-4-yl)-3,4-dihydrothieno[2,3-f][1,4]thiazepin-5(2H)-one 1,1-dioxide]", "IC50": "≤ 5"}
{"smiles": "CN1Cc2cc(Cl)c(Nc3ncc(C(F)(F)F)c(-c4cc5c(s4)C(=O)N(C)CCS5(=O)=O)n3)cc2C1", "note": "[Example 181, 7-(2-((6-chloro-2-methylisoindolin-5-yl)amino)-5-(trifluoromethyl)pyrimidin-4-yl)-4-methyl-3,4-dihydrothieno[2,3-f][1,4]thiazepin-5(2H)-one 1,1-dioxide]", "IC50": "≤ 5"}
{"smiles": "Cc1nn(C2CCN(C)CC2)cc1Nc1ncc(C(F)(F)F)c(-c2cc3c(s2)C(=O)NCCS3(=O)=O)n1", "note": "[Example 182, 7-(2-((3-methyl-1-(1-methylpiperidin-4-yl)-1H-pyrazol-4-yl)amino)-5-(trifluoromethyl)pyrimidin-4-yl)-3,4-dihydrothieno[2,3-f][1,4]thiazepin-5(2H)-one 1,1-dioxide]", "IC50": "> 100"}
{"smiles": "Cc1nn(C2CCN(C)CC2)cc1Nc1ncc(C(F)(F)F)c(-c2cc3c(s2)C(=O)N(C)CCS3(=O)=O)n1", "note": "[Example 183, 4-methyl-7-(2-((3-methyl-1-(1-methylpiperidin-4-yl)-1H-pyrazol-4-yl)amino)-5-(trifluoromethyl)pyrimidin-4-yl)-3,4-dihydrothieno[2,3-f][1,4]thiazepin-5(2H)-one 1,1-dioxide]", "IC50": "> 100"}
